{
  "source": "patent US5219825A",
  "about": "“Synergistic herbicidal compositions comprising herbicides which generate toxic oxygen radicals and chelating agents which inhibit their detoxification” (Yeda Research and Development Co., Ltd., priority 1986, dated 1993)",
  "key": {"[1]": {"tested_on": "Conyza bonariensis paraquat sensitive biotype", "experiment": "Phytotoxicity measured as 14CO2 fixation 24 h after spraying", "format": "in vivo", "details": "for % photosynthesis inhibition: sensitive biotype", "protocol": "(§1) Seeds of two biotypes of Conyza bonariensis (L.) Cronq. (synonym C. linifolia) were obtained from Egypt. The paraquat sensitive biotype was gathered near Alexendria and seeds of the resistant type from the Tahrir irrigation district. They were obtained from Dr. Martin Parham in England. Seeds were germinated in a growth room with a 14 h light period at 25° C. Plants were transferred out of doors 24 h before being sprayed. The phytotoxicity of three herbicides representative of the three different modes of generating active oxygen species known at present. Commercial paraquat (Gramoxone-ICI Plant Protection Ltd) was formulated with 0.1% (w/v) Tween-20 (a non-ionic surfactant) for spraying. The response to the range of 10^-5 M to 10^-2 M paraquat was measured by spraying two plants per concentration to run-off in the early morning. All plants were exposed to sunlight for at least 13 h (1300 μE.m^-2s^-1 photosynthetically active radiation (PAR) at mid day). Commercial acifluorfen (Blazer, Rohm, and Hass, Philadelphia, Pa., USA) to which was added 0.25% Tween-20 was sprayed to run-off. The response to spraying was measured as with paraquat 24 h after spraying. Commercial atrazine (Atranex 50 WP-Agan) was sprayed at various rates in 0.25% Tween 20 to run off. Fully expanded, 8 to 10 cm long leaves from plants in the rosette stage were used in all experiments. Phytotoxicity of acifluorfen and paraquat was measured as CO2 fixation 24 h later as follows: Detached leaves were placed on wet filter paper in a sealed chamber with 5μ Ci^14 C-sodium bicarbonate. Tartaric acid was remotely dripped on the sodium bicarbonate to release ^14 CO2. Leaves were illuminated with […] (PAR) for 30 min. Eighty percent acetone was added and the mixture put under strong light to photobleach pigments and evaporate the acetone. A scintillation mixture of Lumax:xylene (45:55) was added to the leaves and remaining water. The samples were counted and the data expressed as DPM.cm^-2. Area was measured with a planimeter from photocopies of the leaves made prior to photosynthesis measurements. Phytotoxicity of atrazine was measured as the elevated level of malonyldialdehyde in the tissue. Malonyldialdehyde (as measured with thiobarbituric acid according to Dodge and Gillham (Asp. Appl. Biol 11 97 (1986)) is a measurement of lipoxidation of unsaturated fatty acids, and provides an excellent estimation of damage by active oxygen species."}, "[2]": {"tested_on": "Conyza bonariensis paraquat tolerant biotype", "experiment": "Phytotoxicity measured as 14CO2 fixation 24 h after spraying", "format": "in vivo", "details": "for % photosynthesis inhibition: tolerant biotype", "protocol": "as §1"}, "[3]": {"tested_on": "superoxide dismutase extracted from chloroplasts of Conyza bonariensis biotype requiring high levels of oxidant herbicide", "experiment": "Inhibition of superoxide dismutase activity on gel", "format": "biochemical", "details": "gel soaked with 0.2% diethyldithiocarbamate", "protocol": "(§2) Based on preliminary evidence that there was no difference in superoxides dismutase activity in whole leaves of these two biotypes and our own findings we assayed the levels of the dismutating enzymes in chloroplast extracts. The oxidant producing herbicides are effective in field conditions only in the light. […] This justifies assay of these enzymes in chloroplasts. Intact chloroplasts were isolated according to the method of Slovacek and Hind (Plant Physio. 60, 538 (1977)) except that 50 mM 2-(N-morpholino)ethanesulfonic acid buffer was used instead of the pyrophosphate buffer originally used in the chloroplast isolation medium. […] Chlorophyll content was measured in 80% acetone according to Arnon (Plant Physiol. 24 1 […]). Intactness of chloroplast was measured by means of ribulose-bis-phosphate-carboxylase activity in the chloroplast fraction supernatant according to Bjorkman (Physiol. Plant 21 1, (1968)), and proteins by the method of Bradford (Analyt. Biochem. 72 248 (1976)). […] We developed a technique to quantify superoxide dismutase by generating a standard curve by running different levels of known superoxide dismutase (ex bovine blood, Sigma) on the same gel. […] The gels were scanned in a Beckman DU-8 spectrophotometer, the peak areas were measured and related to the superoxide dismutase standard curve which was linear up to 0.2 enzyme units. […]"}, "[4]": {"tested_on": "superoxide dismutase extracted from chloroplasts of Conyza bonariensis biotype requiring low levels of oxidant herbicide", "experiment": "Inhibition of superoxide dismutase activity on gel", "format": "biochemical", "details": "gel soaked with 0.2% diethyldithiocarbamate", "protocol": "as §2"}, "[5]": {"tested_on": "Conyza bonariensis paraquat tolerant (high herbicide requiring) biotype", "experiment": "Malonyldialdehyde in tissue (lipoxidation, membrane damage) after spraying", "format": "in vivo", "details": "atrazine 0 μM; DDC 0.5% alone; high herbicide requiring biotype; untreated control = 100", "protocol": "as §1\n^b membrane damage was measured as malonyldialdehyde release\nSimilarly, both the paraquat resistant and sensitive biotypes of Conyza bonariensis were treated with two other oxidant generating herbicides. Atrazine (of the triazine group) is the most widely used oxidant generating herbicides in agriculture. We used various dilutions of a commercial wettable powder (Atranex 50WP-Agan Chemicals) to which we added 0.5% DDC. The effects were scored 24 h later. […] We also tested to see whether acifluorfen, a nitro diphenyl ether herbicide would be synergized. It is generally agreed that light and oxygen are required for its action via oxidant damage. We sprayed a commercial formulation of acifluorfen (Blazer, Rohm and Haas) to which were added 0.25% Tween-20 detergent, with and without DDC. The effects were scored 24 h later."}, "[6]": {"details": "herbicide molar conc. 3 × 10^-4"}, "[7]": {"details": "herbicide molar conc. 3.2 × 10^-5"}},
  "data": [
    {"smiles": "C[n+]1ccc(-c2cc[n+](C)cc2)cc1", "note": "[paraquat, 1,1'-dimethyl-4-4'bipyridium ion]", "values": [
      {"measurement": "IC100", "setting": "[1]; Conyza bonariensis, 24 h, wild biotype, read-out: concentration at which CO2 assimilation ceased", "value": 10, "unit": "µM"},
      {"measurement": "% photosynthesis inhibition", "setting": "[1]; [6]", "value": 100, "unit": "%"},
      {"measurement": "% photosynthesis inhibition", "setting": "[1]; [7]", "value": 100, "unit": "%"},
      {"measurement": "% photosynthesis inhibition", "setting": "[1]; herbicide molar conc. 10^-3", "value": 100, "unit": "%"},
      {"measurement": "% photosynthesis inhibition", "setting": "[1]; herbicide molar conc. 10^-4", "value": 100, "unit": "%"},
      {"measurement": "% photosynthesis inhibition", "setting": "[1]; herbicide molar conc. 10^-5, spray to run-off", "value": 95, "unit": "%"},
      {"measurement": "IC100", "setting": "[2]; Conyza bonariensis, 24 h, resistant biotype, read-out: concentration at which CO2 assimilation ceased", "value": 1000, "unit": "µM"},
      {"measurement": "% photosynthesis inhibition", "setting": "[2]; herbicide molar conc. 3 × 10^-3", "value": 100, "unit": "%"},
      {"measurement": "% photosynthesis inhibition", "setting": "[2]; [6]", "value": 48, "unit": "%"},
      {"measurement": "% photosynthesis inhibition", "setting": "[2]; [7]", "value": 0, "unit": "%"},
      {"measurement": "% photosynthesis inhibition", "setting": "[2]; herbicide molar conc. 10^-3", "value": 97, "unit": "%"},
      {"measurement": "% photosynthesis inhibition", "setting": "[2]; herbicide molar conc. 10^-4", "value": 0, "unit": "%"},
      {"measurement": "% photosynthesis inhibition", "setting": "[2]; herbicide molar conc. 10^-5", "value": 0, "unit": "%"}
    ]},
    {"smiles": "CCN(CC)C(=S)[S-].[Na+]", "note": "[DDC, Sodium diethyldithiocarbamate]", "values": [
      {"measurement": "% inhibition of activity", "setting": "[3]", "value": 100, "unit": "%"},
      {"measurement": "% inhibition of activity", "setting": "[4]", "value": 100, "unit": "%"},
      {"measurement": "membrane damage (malonyldialdehyde release)", "setting": "[5]", "value": 112}
    ]}
  ]
}
